The results in this text go back to patent US9593118B2, “Xanthine-substituted alkynyl carbamates/reverse carbamates as A2B antagonists” (Lewis and Clark Pharmaceuticals, Inc., priority 2015, dated 2017).

Structures are written as SMILES.

The experiment has as its target T1, A2B adenosine receptor (Homo sapiens, UniProt P29275).
T1 construct: An endogenous A2B adenosine receptor coupled to cyclic AMP generation in human embryonic kidney (HEK-293) cells; endogenous in cells
T1 sequence (P29275 1-332): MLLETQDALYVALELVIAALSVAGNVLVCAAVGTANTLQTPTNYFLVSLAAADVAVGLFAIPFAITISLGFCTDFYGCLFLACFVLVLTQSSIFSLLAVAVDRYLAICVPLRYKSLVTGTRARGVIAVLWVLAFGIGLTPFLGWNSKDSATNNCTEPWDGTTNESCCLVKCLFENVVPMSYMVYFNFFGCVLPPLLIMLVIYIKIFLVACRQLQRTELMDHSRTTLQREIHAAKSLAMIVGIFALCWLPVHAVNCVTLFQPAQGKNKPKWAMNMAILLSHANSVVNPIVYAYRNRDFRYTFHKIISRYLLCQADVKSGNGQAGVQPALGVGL
Nature of the experiment: A2B antagonist cAMP assay (inhibition of the NECA response, HTRF). Type of experiment: cell-based. To be noted: test compound at 1×10^−7M; percent inhibition of the control response to 1 μM NECA (cAMP). How it is done: Representative compounds of the present invention have been tested for their activity as A2B antagonists and shown to be active. These values were obtained by using the following methodology.
The cells are suspended in HBSS buffer (Invitrogen) complemented with 20 mM HEPES (pH 7.4), then distributed in microplates at a density of 5×10^3 cells/well and preincubated for 5 min at room temperature in the presence of HBSS (basal control), the test compound or the reference antagonist. Thereafter, the reference agonist NECA is added at a final concentration of 1 μM. […] Following 10 min incubation at 37° C., the cells are lysed and the fluorescence acceptor (D2-labeled cAMP) and fluorescence donor (anti-cAMP antibody labeled with europium cryptate) are added. After 60 min at room temperature, the fluorescence transfer is measured at λex=337 nm and λem=620 and 665 nm using a microplate reader (Rubystar, BMG). The cAMP concentration is determined by dividing the signal measured at 665 nm by that measured at 620 nm (ratio). The results are expressed as a percent inhibition of the control response to 1 μM NECA. The standard reference antagonist is XAC, which is tested in each experiment at several concentrations to generate a concentration-response curve from which its IC50 value is calculated.
Reference: Cooper, J., Hill, S. J., and Alexander, S. P. H. (1997), An endogenous A2B adenosine receptor coupled to cyclic AMP generation in human embryonic kidney (HEK-293) cells, Brit. J. Pharmacol., 122: 546.
With `CN(CC#Cc1nc2c([nH]1)c(=O)n(C1CC1)c(=O)n2C1CC1)C(=O)Oc1ccc(F)cc1` [Example 1, 1,3-Dicyclopropyl-8-(3-(methyl((4-fluorophenoxy)carbonyl)amino)prop-1-yn-1-yl)xanthine], the inhibition at 0.1 µM was over 20%.
Take `CCCn1c(=O)n(C2CC2)c(=O)c2[nH]c(C#CCN(C)C(=O)Oc3ccc(F)cc3)nc21` [Example 2, 1-Cyclopropyl-3-propyl-8-(3-(methyl((4-fluorophenoxy)carbonyl)amino)prop-1-yn-1-yl)xanthine]: the inhibition at 0.1 µM is over 20%.
The same measure for `CN(CC#Cc1nc2c([nH]1)c(=O)n(C1CC1)c(=O)n2C1CC1)C(=O)Oc1ccccc1` [Example 3, 1,3-Dicyclopropyl-8-(3-(methyl(phenoxycarbonyl)amino)prop-1-yn-1-yl)xanthine]: over 5%; for `CN(CC#Cc1nc2c([nH]1)c(=O)n(C1CC1)c(=O)n2C1CC1)C(=O)Oc1cccc(C(F)(F)F)c1` [Example 4, 1,3-Dicyclopropyl-8-(3-(methyl((3-(trifluoromethyl)phenoxy)carbonyl)-amino)prop-1-yn-1-yl)xanthine]: over 5%.
`COc1ccccc1OC(=O)N(C)CC#Cc1nc2c([nH]1)c(=O)n(C1CC1)c(=O)n2C1CC1` [Example 5, 1,3-Dicyclopropyl-8-(3-(methyl((2-methoxyphenoxy)carbonyl)amino)prop-1-yn-1-yl)xanthine] yielded an inhibition at 0.1 µM of over 5%.
In the case of `CN(CC#Cc1nc2c([nH]1)c(=O)n(C1CC1)c(=O)n2C1CC1)C(=O)Oc1ccccc1Cl` [Example 6, 8-(3-(((2-Chlorophenoxy)carbonyl)(methyl)amino)prop-1-yn-1-yl)-1,3-dicyclopropylxanthine], the inhibition at 0.1 µM is over 5%.
`CN(C(=O)OCC#Cc1nc2c([nH]1)c(=O)n(C1CC1)c(=O)n2C1CC1)c1ccccc1` [Example 7, 1,3-Dicyclopropyl-8-(3-((methyl(phenyl)carbamoyl)oxy)prop-1-yn-1-yl)xanthine] gave an inhibition at 0.1 µM of over 5%.
The same measure for `CN(C(=O)OCC#Cc1nc2c([nH]1)c(=O)n(C1CC1)c(=O)n2C1CC1)c1ccc(Cl)cc1` [Example 8, 8-(3-(((4-Chlorophenyl)(methyl)carbamoyl)oxy)prop-1-yn-1-yl)-1,3-dicyclopropylxanthine]: over 20%.
